One assay addresses T1, CDK1/CycB (Homo sapiens, UniProt P06493).
T1 construct: purchased ProQinase GmbH, Freiburg, Germany; host or cells: baculovirus-infected insect cells (Sf9)
As to the kind of experiment: CDK1/CycB kinase assay (Assay 1). Type of assay: biochemical. The settings on record: 0.5 μM ATP, histon IIIS, 10 min 22° C.; read-out: CDK1/CycB (Assay 1) Concentration for half-maximal inhibition of the enzyme activity, IC50. The procedure:
Recombinant CDK1 and CycB-GST fusion proteins, purified from baculovirus-infected insect cells (Sf9), were purchased from ProQinase GmbH, Freiburg, Germany. The histon HIS used as kinase substrate is commercially available from Sigma.
CDK1/CycB (200 ng/measuring point) was incubated for 10 min at 22° C. in the presence of various concentrations of test substances (0 μM, and within the range 0.01-100 μM) in assay buffer [50 mM Tris/HCl pH8.0, 10 mM MgCl2, 0.1 mM Na ortho-vanadate, 1.0 mM dithiothreitol, 0.5 μM adenosine triphosphate (ATP), 10 μg/measuring point histon IIIS, 0.2 μCi/measuring point ^33P-gamma ATP, 0.05% NP40, 1.25% dimethyl sulfoxide]. The reaction was stopped by adding EDTA solution (250 mM, pH 8.0, 15 μl/measuring point).
(§1) From each reaction mixture, 15 μl were applied to P30 filter strips (from Wallac), and unincorporated ^33P-ATP was removed by washing the filter strips three times, for 10 min each time, in 0.5% phosphoric acid. After drying the filter strips for 1 hour at 70° C., the filter strips were covered with scintillator strips (MeltiLex™ A, from Wallac) and stoved for 1 hour at 90° C. The amount of incorporated ^33P (substrate phosphorylation) was determined by scintillation measurement in a gamma-radiation measuring instrument (Wallac). The measured data were standardized to 0% inhibition (enzyme reaction without inhibitor) and 100% inhibition (all assay components except enzyme). The IC50 values were determined by means of a 4-parameter fit using the company's own software.

Another assay deals with HCT116. The assay can be described thus: Proliferation assay HCT116. The settings on record: Homo sapiens, HCT-116, 96 h; HCT116, colon/rectum carcinoma; 4 days, crystal violet. Type of assay: cell-based. The procedure: (§2) Cultivated human tumor cells (originally obtained from ATCC, HeLa-MaTu and HeLa-MaTu-ADR, originally obtained from Epo GmbH, Berlin, Germany) were plated at a density of 1000 to 5000 cells/measuring point, depending on the growth rate of the cell line, in a 96-well multititer plate in 200 μl of growth medium (DMEM/HAMS F12, 2 mM L-glutamine, 10% fetal calf serum). After 24 hours the cells of one plate (zero-point plate) were stained with crystal violet (see below), whereas the medium of the other plates was replaced with fresh culture medium (200 μl), to which the test substances had been added at various concentrations (0 μM, and in the range 0.01-30 μM; the final concentration of the solvent dimethyl sulfoxide was 0.5%). The cells were incubated for 4 days in the presence of the test substances. Cellular proliferation was determined by staining the cells with crystal violet: the cells were fixed by adding 20 μl/measuring point of an 11% glutaraldehyde solution for 15 min at room temperature. After washing the fixed cells with water three times, the plates were dried at room temperature. The cells were stained by adding 100 μl/measuring point of a 0.1% crystal violet solution (pH adjusted to pH3 by adding acetic acid). After washing the stained cells with water three times, the plates were dried at room temperature. The dye was dissolved by adding 100 μl/measuring point of a 10% acetic acid solution. The extinction was determined photometrically at a wavelength of 595 nm. The percentage change in cell growth was calculated by standardization of the measured values to the extinction values of the zero-point plate (=0%) and the extinction of the untreated (0 μM) cells (=100%). The measured data were standardized to 0% inhibition (cell proliferation without inhibitor) and 100% inhibition (zero-point plate). The IC50 values were determined by means of a 4-parameter fit using the company's own software.
(§3) The substances were examined in the following cell lines which, in an exemplary manner, represent the stated indications: […]

In a further assay the target is T2, CDK2/CycE (Homo sapiens, UniProt P24941).
T2 construct: purchased ProQinase GmbH, Freiburg, Germany; host or cells: baculovirus-infected insect cells (Sf9)
The assay can be described thus: CDK2/CycE kinase assay (Assay 2). The format is biochemical. The settings on record: 0.5 μM ATP, histon IIIS, 10 min 22° C.; read-out: CDK2/CycE (Assay 2) Concentration for half-maximal inhibition of the enzyme activity, IC50. The procedure: Recombinant CDK2 and CycE-GST fusion proteins, purified from baculovirus-infected insect cells (Sf9), were purchased from ProQinase GmbH, Freiburg, Germany. Histon HIS, used as kinase substrate, was purchased from Sigma.
The reaction was stopped by adding EDTA solution (250 mM, pH 8.0, 15 μl/measuring point).
as §1, with “μl was” for “μl were”, “(Wallac). […]” for “(Wallac). The measured data were standardized to 0% inhibition (enzyme reaction without inhibitor) and 100% inhibition (all assay components except enzyme).”

For a further assay, the system named is HeLa. The assay can be described thus: Proliferation assay HeLa. The format is cell-based. The settings on record: Homo sapiens, 96 h, cervix carcinoma, 4 days, crystal violet. The procedure: as §2, §3
In a further assay the test system is SW480. As to the kind of experiment: Proliferation assay SW480. Type of assay: cell-based. The settings on record: Homo sapiens, 96 h; SW480, colon/rectum carcinoma; 4 days, crystal violet. As for the experimental part: as §2, §3
The target in assay [1] is T3, VEGF receptor tyrosine kinase-2 (VEGF-R2) (Homo sapiens, UniProt P35968).
T3 construct: GST; made in house; host or cells: baculovirus-infected insect cells (Sf9)
As to the kind of experiment: VEGF receptor-2 kinase assay (Assay 3). The format is biochemical. The settings on record: 8 μM ATP, poly-(Glu4Tyr), 10 min 22° C.; read-out: VEGF-R2 (Assay 3) Concentration for half-maximal inhibition of the enzyme activity, IC50. As for the experimental part:
Recombinant VEGF receptor tyrosine kinase-2 was purified as GST fusion protein from baculovirus-infected insect cells (Sf9). Poly-(Glu4Tyr), used as kinase substrate, was purchased from Sigma.
VEGF receptor tyrosine kinase (90 ng/measuring point) was incubated for 10 min at 22° C. in the presence of various concentrations of test substances (0 μM, and within the range 0.001-30 μM) in 30 μl assay buffer [40 mM Tris/HCl pH5.5, 10 mM MgCl2, 1 mM MnCl2, 3 μM Na ortho-vanadate, 1.0 mM dithiothreitol, 8 μM adenosine triphosphate (ATP), 0.96 μg/measuring point poly-(Glu4Tyr), 0.2 μCi/measuring point ^33P-gamma ATP, 1.4% dimethyl sulfoxide]. The reaction was stopped by adding EDTA solution (250 mM, pH 8.0, 15 μl/measuring point).
as §1, with “μl was” for “μl were”

The subject of a further assay is HeLa-MaTu. The assay can be described thus: Proliferation assay HeLa-MaTu. Type of assay: cell-based, human. The settings on record: cervix carcinoma, 4 days, crystal violet. The procedure:
as §2, §3

The subject of a further assay is Caco-2. The assay can be described thus: Proliferation assay Caco-2. The settings on record: Caco-2, colon/rectum carcinoma, 4 days, crystal violet. The format is cell-based, human. As for the experimental part: as §2, §3
The test system of a further assay is MCF7. The assay can be described thus: Proliferation assay MCF7. Type of assay: cell-based, human. The settings on record: MCF7, estrogen receptor-positive mamma carcinoma, 4 days, crystal violet. The procedure: as §2, §3
The next assay concerns HeLa-MaTu-ADR. The assay can be described thus: Proliferation assay HeLa-MaTu-ADR. The format is cell-based, human. The settings on record: cervix carcinoma, 4 days, crystal violet. The procedure: as §2, §3
Another assay concerns NCI-H460. As to the kind of experiment: Proliferation assay NCI-H460. Type of assay: cell-based, human. The note with it: NCI-H460, non-small-cell bronchial carcinoma, 4 days, crystal violet. The procedure:
as §2, §3

Another assay relates to DU145. As to the kind of experiment: Proliferation assay DU145. The format is cell-based, human. The settings on record: DU145, prostate carcinoma, 4 days, crystal violet. The procedure:
as §2, §3

T1 sequence (P06493 whole entry): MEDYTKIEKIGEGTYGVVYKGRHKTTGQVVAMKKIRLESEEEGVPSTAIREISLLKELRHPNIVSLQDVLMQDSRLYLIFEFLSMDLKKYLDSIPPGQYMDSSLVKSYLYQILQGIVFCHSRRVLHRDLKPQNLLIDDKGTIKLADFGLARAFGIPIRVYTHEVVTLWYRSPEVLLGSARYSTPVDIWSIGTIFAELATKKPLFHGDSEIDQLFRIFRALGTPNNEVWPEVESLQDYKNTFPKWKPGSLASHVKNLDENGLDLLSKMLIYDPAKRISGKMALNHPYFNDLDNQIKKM
T1 sequence (P14635 whole entry partner): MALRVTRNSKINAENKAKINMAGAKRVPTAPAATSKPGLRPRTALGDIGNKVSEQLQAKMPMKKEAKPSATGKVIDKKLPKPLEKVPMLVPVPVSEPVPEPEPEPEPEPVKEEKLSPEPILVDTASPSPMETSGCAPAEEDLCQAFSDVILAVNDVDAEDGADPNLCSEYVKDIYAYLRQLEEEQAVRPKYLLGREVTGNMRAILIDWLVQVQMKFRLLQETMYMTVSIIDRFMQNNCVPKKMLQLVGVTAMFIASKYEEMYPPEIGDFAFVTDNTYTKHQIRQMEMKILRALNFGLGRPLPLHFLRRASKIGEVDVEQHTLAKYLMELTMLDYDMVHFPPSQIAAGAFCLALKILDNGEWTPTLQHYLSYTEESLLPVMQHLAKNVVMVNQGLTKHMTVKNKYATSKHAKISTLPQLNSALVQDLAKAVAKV
T3 sequence (P35968 20-1356, species assumed): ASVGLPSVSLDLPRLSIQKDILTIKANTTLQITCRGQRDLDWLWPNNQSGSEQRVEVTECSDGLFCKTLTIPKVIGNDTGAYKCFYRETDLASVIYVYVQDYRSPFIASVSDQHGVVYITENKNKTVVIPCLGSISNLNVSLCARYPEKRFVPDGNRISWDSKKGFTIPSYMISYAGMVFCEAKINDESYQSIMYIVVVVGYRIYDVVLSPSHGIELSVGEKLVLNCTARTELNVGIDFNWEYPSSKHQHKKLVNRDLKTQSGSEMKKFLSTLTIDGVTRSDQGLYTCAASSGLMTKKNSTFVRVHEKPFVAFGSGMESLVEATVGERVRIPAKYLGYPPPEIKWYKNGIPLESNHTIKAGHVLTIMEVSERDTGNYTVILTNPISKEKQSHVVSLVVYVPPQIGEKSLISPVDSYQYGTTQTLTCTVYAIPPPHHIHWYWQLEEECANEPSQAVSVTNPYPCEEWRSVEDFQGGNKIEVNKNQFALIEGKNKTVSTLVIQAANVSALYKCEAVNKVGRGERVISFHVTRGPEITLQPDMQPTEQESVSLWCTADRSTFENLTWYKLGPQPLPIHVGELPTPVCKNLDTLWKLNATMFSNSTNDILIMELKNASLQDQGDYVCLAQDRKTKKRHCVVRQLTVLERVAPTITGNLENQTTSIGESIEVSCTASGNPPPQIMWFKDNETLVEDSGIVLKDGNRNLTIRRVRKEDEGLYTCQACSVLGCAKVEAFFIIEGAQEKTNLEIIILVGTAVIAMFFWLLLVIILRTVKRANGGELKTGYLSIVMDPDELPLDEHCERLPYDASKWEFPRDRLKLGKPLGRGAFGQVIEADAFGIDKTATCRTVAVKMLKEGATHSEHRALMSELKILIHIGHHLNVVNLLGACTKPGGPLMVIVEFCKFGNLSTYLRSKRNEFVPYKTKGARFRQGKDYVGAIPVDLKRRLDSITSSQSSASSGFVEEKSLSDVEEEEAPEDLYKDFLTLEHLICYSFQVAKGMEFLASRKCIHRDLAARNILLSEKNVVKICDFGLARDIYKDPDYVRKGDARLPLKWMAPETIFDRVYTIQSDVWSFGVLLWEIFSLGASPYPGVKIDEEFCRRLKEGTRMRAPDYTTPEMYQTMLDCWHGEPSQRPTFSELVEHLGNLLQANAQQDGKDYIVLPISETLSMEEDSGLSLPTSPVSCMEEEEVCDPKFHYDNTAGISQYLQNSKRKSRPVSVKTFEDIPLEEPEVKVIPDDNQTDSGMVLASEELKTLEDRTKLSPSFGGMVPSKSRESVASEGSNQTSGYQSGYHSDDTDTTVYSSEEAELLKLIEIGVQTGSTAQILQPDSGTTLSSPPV

For the compound `CCS(=N)(=O)c1ccc(Nc2ncc(C(F)(F)F)c(N[C@H](C)C(C)(C)O)n2)cc1` (single isomer, unassigned) [Example 7-SI-2], the IC50 on CDK1/CycB was found to be 7 nM; with HCT116, 17 nM; at CDK2/CycE, 5 nM; with HeLa, 33 nM; in the assay on SW480, 45 nM; in [1], 136 nM.
Regarding `C[C@@H](Nc1nc(Nc2ccc(S(C)(=N)=O)cc2)ncc1C(F)(F)F)C(C)(C)O` (single isomer, unassigned) [Example 9-SI-1], the IC50 was 4 nM at CDK1/CycB; 20 nM in the assay on HeLa-MaTu (Homo sapiens, 96 h); 5 nM on CDK2/CycE; 158 nM in [1].
Regarding `C[C@@H](Nc1nc(Nc2ccc(S(=N)(=O)C3CC3)cc2)ncc1C(F)(F)F)C(C)(C)O` (mixture of isomers) [Example 5-SI-1, (RS)—S-Cyclopropyl-S-(4-{[4-{[(R)-2-hydroxy-1,2-dimethylpropyl]amino}-5-(trifluoromethyl)-pyrimidin-2-yl]amino}phenyl)sulfoximide], the IC50 at CDK1/CycB was determined as 25 nM; with Caco-2 it was 112 nM; with MCF7 (Homo sapiens, MCF7, 96 h) it was 33 nM; with HeLa-MaTu-ADR it was 63 nM; with NCI-H460 it was 70 nM; in the assay on HeLa-MaTu it was 22 nM. Moreover, the IC50 was 8 nM on CDK2/CycE, 107 nM in the assay with DU145 and 70 nM in [1].
For `C[C@@H](O)[C@@H](C)Oc1nc(Nc2ccc(S(C)(=N)=O)cc2)ncc1C(F)(F)F` (single isomer, unassigned) [Example 2-SI-1], the IC50 on CDK1/CycB was 5 nM; in the assay with HeLa-MaTu (Homo sapiens, 96 h), 12 nM; at CDK2/CycE, 6 nM; in assay [1] it was 84 nM.
As for `C[C@@H](O)[C@@H](C)Nc1nc(Nc2ccc(S(C)(=N)=O)cc2)ncc1C(F)(F)F` (single isomer, unassigned) [Example 8-SI-2], the IC50 on CDK1/CycB amounted to 3 nM; in the assay with HCT116, 17 nM; on CDK2/CycE, 4 nM; in the assay on HeLa it was 25 nM; in the assay with SW480 it was 31 nM; in assay [1], 81 nM.
`CCS(=N)(=O)c1ccc(Nc2ncc(C(F)(F)F)c(N[C@H](C)[C@@H](C)O)n2)cc1` (mixture of isomers) [Example 6-SI-2, (RS)—S-Ethyl-S-(4-{[4-{[(1R,2R)-2-hydroxy-1-methylpropyl]amino}-5-(trifluoromethyl)-pyrimidin-2-yl]amino}phenyl)sulfoximide]: the IC50 at CDK1/CycB was 5 nM; in the assay with Caco-2, 26 nM; in the assay with MCF7, 26 nM; in the assay on HeLa-MaTu-ADR (Homo sapiens, 96 h), 18 nM; in the assay with HCT116, 24 nM; with NCI-H460, 24 nM. The IC50 is 10 nM in the assay with HeLa-MaTu (Homo sapiens, 96 h); 5 nM on CDK2/CycE; 32 nM in the assay on HeLa; 197 nM in the assay on DU145 (Homo sapiens, DU-145, 96 h); 71 nM in assay [1].
With `C[C@@H](O)[C@@H](C)Nc1nc(Nc2ccc(S(C)(=N)=O)cc2)ncc1C(F)(F)F` (single isomer, unassigned) [Example 8-SI-1], the IC50 is 11 nM at CDK1/CycB; 32 nM in the assay with Caco-2 (Homo sapiens, Caco-2, 96 h); 44 nM in the assay with MCF7 (Homo sapiens, MCF7, 96 h); 30 nM in the assay on HeLa-MaTu-ADR (Homo sapiens, 96 h); 30 nM with NCI-H460 (Homo sapiens, NCI-H460, 96 h); 14 nM in the assay on HeLa-MaTu (Homo sapiens, 96 h). Further, the results for the IC50 (at CDK2/CycE; in [1]) were 6 nM and 116 nM, respectively.
Turning to `C[C@@H](Nc1nc(Nc2ccc(S(=N)(=O)C3CC3)cc2)ncc1C(F)(F)F)C(C)(C)O` (mixture of isomers) [Example 5-SI-2, (RS)—S-Cyclopropyl-S-(4-{[4-{[(R)-2-hydroxy-1,2-dimethylpropyl]amino}-5-(trifluoromethyl)-pyrimidin-2-yl]amino}phenyl)sulfoximide], the IC50 was 9 nM at CDK1/CycB; 42 nM in the assay on Caco-2; 34 nM in the assay on MCF7; 24 nM in the assay with HeLa-MaTu-ADR; 28 nM with HCT116; 33 nM in the assay on NCI-H460. Moreover, the IC50 with HeLa-MaTu was found to be 10 nM; at CDK2/CycE it was 8 nM; with HeLa, 50 nM; in the assay with DU145 it was 26 nM; in assay [1], 82 nM.
